{
  "source": "patent US20240182893A1",
  "about": "“INHIBITION OF FGR REDUCES FIBROSIS” (UNIVERSITY OF PITTSBURGH-OF THE COMMONWEALTH SYSTEM OF …, priority 2021, published 2024)",
  "origin": "cited, not measured here",
  "target": "Fgr (Homo sapiens, UniProt P09769)",
  "sequence (P09769 whole entry, species assumed)": "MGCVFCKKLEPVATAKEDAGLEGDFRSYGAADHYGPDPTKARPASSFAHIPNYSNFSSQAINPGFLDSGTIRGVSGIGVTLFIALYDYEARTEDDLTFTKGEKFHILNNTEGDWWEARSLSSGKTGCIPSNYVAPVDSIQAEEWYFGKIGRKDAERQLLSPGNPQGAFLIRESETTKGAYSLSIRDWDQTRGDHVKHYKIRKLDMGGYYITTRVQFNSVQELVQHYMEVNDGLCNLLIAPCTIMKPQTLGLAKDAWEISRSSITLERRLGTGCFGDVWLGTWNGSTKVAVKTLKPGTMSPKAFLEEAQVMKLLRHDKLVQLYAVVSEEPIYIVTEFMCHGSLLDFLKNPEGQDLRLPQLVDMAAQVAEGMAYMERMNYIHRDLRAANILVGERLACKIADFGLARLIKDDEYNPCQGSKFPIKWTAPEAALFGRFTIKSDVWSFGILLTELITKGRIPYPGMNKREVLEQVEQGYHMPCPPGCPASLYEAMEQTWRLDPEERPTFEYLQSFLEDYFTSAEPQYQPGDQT",
  "conditions": "cited from earlier work",
  "note": "Entries after “also recorded” stand apart in the source; their conditions may differ.",
  "data": [
    {"smiles": "CCN1CCN(Cc2ccc(NC(=O)c3ccc(C)c(Oc4ncnc5cc(OC)c(OC)cc45)c3)cc2C(F)(F)F)CC1", "note": "[TL02-59]", "values": [
      {"measurement": "kinases inhibited at 10 nM concentration", "setting": "10 nM", "value": "inhibits only Fgr"},
      {"measurement": "concentration with complete inhibition of Fgr", "value": "above 10 nM"},
      {"measurement": "concentration with partial inhibition of Fgr", "value": "0.1 to 1", "unit": "nM"},
      {"measurement": "selectivity for Fgr over other kinases", "value": "remarkably selective for Fgr; also recorded: Fgr specific in the nanomolar concentration"}
    ]}
  ]
}
